Measured values: patent US20090111778A1, “2-Keto-Oxazoles as Modulators of Fatty Acid Amide Hydrolase” (priority 2005, published 2009)
pIC50: −log10 of the molar value. Where a name gives a salt, the structure may show the parent alone.

Key:
[1] = molecular target: T1, rat FAAH (Rattus norvegicus, UniProt P97612); assay: Assay Method 2: FAAH assay, hydrolysis of 3H-anandamide by homogenate of SK-N-MC cells transfected with rat FAAH; type: biochemical; conditions: T84 or transfected SK-N-MC cell homogenate, 3H-AEA tracer 80 nM, rt 1 h, pH 9
T1 construct: expressed in transfected cells
T1 sequence (P97612 1-579): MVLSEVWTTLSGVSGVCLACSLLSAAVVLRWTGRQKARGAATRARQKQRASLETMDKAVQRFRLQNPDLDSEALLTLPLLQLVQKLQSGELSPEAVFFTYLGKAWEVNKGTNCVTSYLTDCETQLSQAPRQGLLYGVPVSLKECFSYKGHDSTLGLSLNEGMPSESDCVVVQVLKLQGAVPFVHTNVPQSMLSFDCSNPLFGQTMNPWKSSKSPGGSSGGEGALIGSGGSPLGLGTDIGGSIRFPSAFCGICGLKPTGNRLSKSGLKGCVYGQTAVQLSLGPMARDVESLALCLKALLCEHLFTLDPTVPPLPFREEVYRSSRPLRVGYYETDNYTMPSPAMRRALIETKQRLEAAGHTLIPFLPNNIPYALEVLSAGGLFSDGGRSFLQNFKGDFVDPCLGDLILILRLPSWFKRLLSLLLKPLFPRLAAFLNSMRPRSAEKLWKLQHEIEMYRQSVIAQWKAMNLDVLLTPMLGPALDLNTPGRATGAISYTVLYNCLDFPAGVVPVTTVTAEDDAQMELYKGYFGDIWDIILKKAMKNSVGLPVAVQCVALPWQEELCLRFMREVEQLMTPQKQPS
Procedure, shortened: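 Rat FAAH activity from homogenate of G418-selected, electroporated SK-N-MC clones was measured as release of radiolabelled ethanolamine from 3H-anandamide. After 1 h at rt, charcoal filtration retained substrate, and scintillation counting of the flow-through gave the read-out.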

[2] = molecular target: T2, human FAAH (Homo sapiens, UniProt O00519); assay: Assay Method 1: FAAH assay, hydrolysis of 3H-anandamide by homogenate of SK-N-MC cells transfected with human FAAH; type: biochemical; conditions: human FAAH; T84 or transfected SK-N-MC cell homogenate; 3H-AEA tracer 80 nM; rt 1 h; pH 9; read-out: Assay 1 IC50
T2 construct: expressed in transfected cells
T2 sequence (O00519 1-579): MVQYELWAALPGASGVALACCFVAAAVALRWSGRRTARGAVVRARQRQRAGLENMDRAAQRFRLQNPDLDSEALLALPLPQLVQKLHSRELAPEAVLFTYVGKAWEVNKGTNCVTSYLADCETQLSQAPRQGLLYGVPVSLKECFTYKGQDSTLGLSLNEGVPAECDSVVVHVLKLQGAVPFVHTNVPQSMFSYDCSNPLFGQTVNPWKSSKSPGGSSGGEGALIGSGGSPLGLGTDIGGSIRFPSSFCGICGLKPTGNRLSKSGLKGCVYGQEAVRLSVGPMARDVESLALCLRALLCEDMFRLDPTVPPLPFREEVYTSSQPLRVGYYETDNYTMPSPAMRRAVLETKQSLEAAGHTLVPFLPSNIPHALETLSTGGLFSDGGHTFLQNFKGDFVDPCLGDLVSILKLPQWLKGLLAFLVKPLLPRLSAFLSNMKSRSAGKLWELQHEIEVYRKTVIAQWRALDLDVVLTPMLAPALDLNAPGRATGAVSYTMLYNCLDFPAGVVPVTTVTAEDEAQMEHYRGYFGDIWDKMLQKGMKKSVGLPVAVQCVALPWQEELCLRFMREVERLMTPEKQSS
Procedure, shortened: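 Homogenate of SK-N-MC cells stably expressing human FAAH (G418-selected clones) incubated with compound and 80 nM [1-3H-ethanolamine]anandamide for 1 h at rt. Released 3H-ethanolamine separated from substrate by activated-charcoal filtration, then counted by scintillation.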

| pIC50 [1] | pIC50 [2] | SMILES |
| --- | --- | --- |
| 7.00 | 7.00 | Cc1ccc(CC(=O)N2CCC(CCCC(=O)c3ncco3)CC2)cc1 [Example 38, 1-Oxazol-2-yl-4-[1-(2-p-tolyl-acetyl)-piperidin-4-yl]-butan-1-one] |
| 7.35 | 7.62 | O=C(CCCC1CCN(Cc2ccc(-c3ccccc3)cc2)CC1)c1ncco1 [Example 73, 4-(1-Biphenyl-4-ylmethyl-piperidin-4-yl)-1-oxazol-2-yl-butan-1-one] |
| 6.71 | 7.82 | O=C(CCCC1CCN(Cc2ccc(-c3ccsc3)nc2)CC1)c1ncco1 [Example 111, 1-Oxazol-2-yl-4-[1-(6-thiophen-3-yl-pyridin-3-ylmethyl)-piperidin-4-yl]-butan-1-one] |
| 5.52 | 6.72 | CC(c1ccccc1)N1CCC(CCCC(=O)c2ncco2)CC1 (centres unmarked) [Example 142, 1-Oxazol-2-yl-4-[1-(1-phenyl-ethyl)-piperidin-4-yl]-butan-1-one] |
| 8.00 | 7.40 | Cc1ccc(CCC(=O)N2CCC(CCCC(=O)c3ncco3)CC2)cc1 [Example 44, 1-Oxazol-2-yl-4-[1-(3-p-tolyl-propionyl)-piperidin-4-yl]-butan-1-one] |
| 6.15 | 6.89 | CCN(CC)c1ccc(CN2CCC(CCCC(=O)c3ncco3)CC2)cc1 [Example 89, 4-[1-(4-Diethylamino-benzyl)-piperidin-4-yl]-1-oxazol-2-yl-butan-1-one] |
| 6.95 | 7.55 | O=C(CCCC1CCN(C(=O)CCC2CCCC2)CC1)c1ncco1 [Example 32, 4-[1-(3-Cyclopentyl-propionyl)-piperidin-4-yl]-1-oxazol-2-yl-butan-1-one] |
| 6.10 | 6.22 | O=C(CCCC1CCN(S(=O)(=O)Cc2ccccc2)CC1)c1ncco1 [Example 53, 1-Oxazol-2-yl-4-(1-phenylmethanesulfonyl-piperidin-4-yl)-butan-1-one] |
| 6.02 | 7.28 | CC(C)c1ccc(CN2CCC(CCCC(=O)c3ncco3)CC2)cn1 [Example 132, 4-[1-(6-Isopropyl-pyridin-3-ylmethyl)-piperidin-4-yl]-1-oxazol-2-yl-butan-1-one] |
| 8.52 | 8.22 | O=C(O)c1cnc(C(=O)CCCC2CCN(Cc3cccc(Oc4ccccc4)c3)CC2)o1 [Example 145, 2-{4-[1-(3-Phenoxy-benzyl)-piperidin-4-yl]-butyryl}-oxazole-5-carboxylic acid trifluoroacetic acid salt] |
| 7.77 | 7.12 | CC(C)c1ccc(CN2CCC(CCCC(=O)c3ncc(C(=O)O)o3)CC2)cc1 [Example 144, 2-{4-[1-(4-Isopropyl-benzyl)-piperidin-4-yl]-butyryl}-oxazole-5-carboxylic acid trifluoroacetic acid salt] |
| 6.10 | 6.37 | O=C(CCCC1CCN(C(=O)Cc2ccccc2Cl)CC1)c1ncco1 [Example 42, 4-{1-[2-(2-Chloro-Phenyl)-acetyl]-piperidin-4-yl}-1-oxazol-2-yl-butan-1-one] |
| 7.32 | 8.40 | COc1cccc(-c2ccc(CN3CCC(CCCC(=O)c4ncco4)CC3)cn2)c1 [Example 104, 4-{1-[6-(3-Methoxy-phenyl)-pyridin-3-ylmethyl]-piperidin-4-yl}-1-oxazol-2-yl-butan-1-one] |
| 8.52 | 7.85 | O=C(O)c1cnc(C(=O)CCCC2CCN(Cc3cccc(-c4ccccc4)c3)CC2)o1 [Example 143, 2-[4-(1-Biphenyl-3-ylmethyl-piperidin-4-yl)-butyryl]-oxazole-5-carboxylic acid trifluoroacetic acid salt] |
| 8.05 | 8.10 | O=C(CCCC1CCN(Cc2ccc3ccccc3c2)CC1)c1ncco1 [Example 20, 4-(1-Naphthalen-2-ylmethyl-piperidin-4-yl)-1-oxazol-2-yl-butan-1-one] |
| 6.93 | 7.30 | CC(C)(C)COC(=O)N1CCC(CCCC(=O)c2ncco2)CC1 [Example 67, 4-(4-Oxazol-2-yl-4-oxo-butyl)-piperidine-1-carboxylic acid 2,2-dimethyl-propyl ester] |
| 6.00 | 6.22 | O=C(CCCC1CCN(Cc2ccc(Cl)nc2)CC1)c1ncco1 [Example 75, 4-[1-(6-Chloro-pyridin-3-ylmethyl)-piperidin-4-yl]-1-oxazol-2-yl-butan-1-one] |
| 6.54 | 6.97 | O=C(CCCC1CCN(C(=O)C2CCCC2)CC1)c1ncco1 [Example 31, 4-(1-Cyclopentanecarbonyl-piperidin-4-yl)-1-oxazol-2-yl-butan-1-one] |
| 7.47 | 8.40 | O=C(CCCC1CCN(S(=O)(=O)c2ccc(Cl)cc2)CC1)c1ncco1 [Example 60, 4-[1-(4-Chloro-benzenesulfonyl)-piperidin-4-yl]-1-oxazol-2-yl-butan-1-one] |
| 7.60 | 7.68 | Cc1ccc(S(=O)(=O)N2CCC(CCCC(=O)c3ncc(-c4cccc(C(=O)O)n4)o3)CC2)cc1 [Example 151, 6-(2-{4-[1-(Toluene-4-sulfonyl)-piperidin-4-yl]-butyryl}-oxazol-5-yl)-pyridine-2-carboxylic acid trifluoroacetic acid salt] |
| 7.72 | 8.15 | CCCOC(=O)N1CCC(CCCC(=O)c2ncco2)CC1 [Example 70, 4-(4-Oxazol-2-yl-4-oxo-butyl)-piperidine-1-carboxylic acid propyl ester] |
| 6.35 | 7.52 | O=C(CCCC1CCN(Cc2cc(F)cc(F)c2F)CC1)c1ncco1 [Example 124, 1-Oxazol-2-yl-4-[1-(2,3,5-trifluoro-benzyl)-piperidin-4-yl]-butan-1-one] |
| 7.24 | 7.28 | O=C(CCCC1CCN(Cc2ccc(Oc3ccccc3)nc2)CC1)c1ncco1 [Example 105, 1-Oxazol-2-yl-4-[1-(6-phenoxy-pyridin-3-ylmethyl)-piperidin-4-yl]-butan-1-one] |
| 7.42 | 7.72 | O=C(CCCC1CCN(C(=O)COc2ccc(Cl)cc2)CC1)c1ncco1 [Example 35, 4-{1-[2-(4-Chloro-phenoxy)-acetyl]-piperidin-4-yl}-1-oxazol-2-yl-butan-1-one] |
| 8.62 | 8.40 | O=C(CCCC1CCN(Cc2ccc(Oc3ccccc3)cc2)CC1)c1ncco1 [Example 15, 1-Oxazol-2-yl-4-[1-(4-phenoxy-benzyl)-piperidin-4-yl]-butan-1-one] |
| 6.25 | 7.17 | O=C(CCCC1CCN(C(=O)c2ccccc2)CC1)c1ncco1 [Example 28, 4-(1-Benzoyl-piperidin-4-yl)-1-oxazol-2-yl-butan-1-one] |
| 6.49 | 6.96 | O=C(CCCC1CCN(Cc2ccc(F)cc2F)CC1)c1ncco1 [Example 114, 4-[1-(2,4-Difluoro-benzyl)-piperidin-4-yl]-1-oxazol-2-yl-butan-1-one] |

| SMILES | pIC50 [1] | pIC50 [2] |
| --- | --- | --- |
| CC(C)(C)CC(=O)N1CCC(CCCC(=O)c2ncco2)CC1 [Example 25, 3,3-Dimethyl-1-[4-(4-oxazol-2-yl-4-oxo-butyl)-piperidin-1-yl]-butan-1-one] | 6.49 | 7.05 |
| CC(C)(C)Oc1ccc(CN2CCC(CCCC(=O)c3ncco3)CC2)cc1 [Example 24, 4-[1-(4-tert-Butoxy-benzyl)-piperidin-4-yl]-1-oxazol-2-yl-butan-1-one] | 7.74 | 7.49 |
| CC(C)OC(=O)N1CCC(CCCC(=O)c2ncco2)CC1 [Example 69, 4-(4-Oxazol-2-yl-4-oxo-butyl)-piperidine-1-carboxylic acid isopropyl ester] | 8.05 | 8.40 |
| CC(C)Oc1ccc(CN2CCC(CCCC(=O)c3ncco3)CC2)cc1 [Example 23, 4-[1-(4-isopropoxy-benzyl)-piperidin-4-yl]-1-oxazol-2-yl-butan-1-one] | 7.51 | 7.85 |
